Assays:
Test in all cases: relative viability (nuclei count vs DMSO), 5 days (fraction); higher = more cells survive
SK-LU-1 = test system: SK-LU-1
Outline: (§1)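 Five library-drug doses in √10 steps were combined with a fixed anchor-drug dose, or a single drug was given alone, by pin tool to lung cancer cell lines in 1536-well plates the day after seeding. Nuclei were stained and counted after 5 days. Relative viability is the nuclei count in treated wells over that in vehicle wells, taken as the median of duplicate plates.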

NCI-H1793 = test system: NCI-H1793
Outline: as §1

CAL-12T = test system: CAL-12T
Outline: as §1

NCI-H1734 = test system: NCI-H1734
Outline: as §1

LU99A = test system: LU99A
Outline: as §1

NCI-H2085 = test system: NCI-H2085
Outline: as §1

NCI-H460 = test system: NCI-H460
Outline: as §1

HCC-366 = test system: HCC-366
Outline: as §1

NCI-H441 = test system: NCI-H441
Outline: as §1

NCI-H1437 = test system: NCI-H1437
Outline: as §1

COR-L23 = test system: COR-L23
Outline: as §1

NCI-H1355 = test system: NCI-H1355
Outline: as §1

NCI-H1563 = test system: NCI-H1563
Outline: as §1

NCI-H1651 = test system: NCI-H1651
Outline: as §1

LOU-NH91 = test system: LOU-NH91
Outline: as §1

NCI-H838 = test system: NCI-H838
Outline: as §1

NCI-H2023 = test system: NCI-H2023
Outline: as §1

NCI-H1975 = test system: NCI-H1975
Outline: as §1

BEN = test system: BEN
Outline: as §1

NCI-H358 = test system: NCI-H358
Outline: as §1

SMILES: O=c1cc(-c2cccc3c2Sc2ccccc2S3)oc(N2CCOCC2)c1 + C[C@]1(O)C[C@@H](c2nc(-c3ccc4ccc(-c5ccccc5)nc4c3)c3c(N)nccn32)C1 [Linsitinib] (partner 1 µM)
- relative viability (SK-LU-1; first compound 0.08 µM): 1.14
- relative viability (SK-LU-1; first compound 0.253 µM): 1.22
- relative viability (SK-LU-1; first compound 0.8 µM): 1.27
- relative viability (SK-LU-1; first compound 2.53 µM): 0.952
- relative viability (SK-LU-1; first compound 8 µM): 0.918
- relative viability (NCI-H1793; first compound 0.08 µM): 0.674
- relative viability (NCI-H1793; first compound 0.253 µM): 1.19
- relative viability (NCI-H1793; first compound 0.8 µM): 0.992
- relative viability (NCI-H1793; first compound 2.53 µM): 0.821
- relative viability (NCI-H1793; first compound 8 µM): 0.919
- relative viability (CAL-12T; first compound 0.08 µM): 0.73
- relative viability (CAL-12T; first compound 0.253 µM): 0.861
- relative viability (CAL-12T; first compound 0.8 µM): 0.899
- relative viability (CAL-12T; first compound 2.53 µM): 0.77
- relative viability (CAL-12T; first compound 8 µM): 0.503
- relative viability (NCI-H1734; first compound 0.08 µM): 0.854
- relative viability (NCI-H1734; first compound 0.253 µM): 1.16
- relative viability (NCI-H1734; first compound 0.8 µM): 1
- relative viability (NCI-H1734; first compound 2.53 µM): 0.876
- relative viability (NCI-H1734; first compound 8 µM): 1.13
- relative viability (LU99A; first compound 0.08 µM): 0.58
- relative viability (LU99A; first compound 0.253 µM): 0.582
- relative viability (LU99A; first compound 0.8 µM): 0.631
- relative viability (LU99A; first compound 2.53 µM): 0.544
- relative viability (LU99A; first compound 8 µM): 0.608
- relative viability (NCI-H2085; first compound 0.08 µM): 0.812
- relative viability (NCI-H2085; first compound 0.253 µM): 0.911
- relative viability (NCI-H2085; first compound 0.8 µM): 0.925
- relative viability (NCI-H2085; first compound 2.53 µM): 0.846
- relative viability (NCI-H2085; first compound 8 µM): 0.595
- relative viability (NCI-H460; first compound 0.08 µM): 0.991
- relative viability (NCI-H460; first compound 0.253 µM): 0.997
- relative viability (NCI-H460; first compound 0.8 µM): 1.08
- relative viability (NCI-H460; first compound 2.53 µM): 0.796
- relative viability (NCI-H460; first compound 8 µM): 0.791
- relative viability (HCC-366; first compound 0.08 µM): 0.605
- relative viability (HCC-366; first compound 0.253 µM): 1.07
- relative viability (HCC-366; first compound 0.8 µM): 0.711
- relative viability (HCC-366; first compound 2.53 µM): 0.744
- relative viability (HCC-366; first compound 8 µM): 0.573
- relative viability (NCI-H441; first compound 0.08 µM): 0.549
- relative viability (NCI-H441; first compound 0.253 µM): 0.619
- relative viability (NCI-H441; first compound 0.8 µM): 0.759
- relative viability (NCI-H441; first compound 2.53 µM): 0.584
- relative viability (NCI-H441; first compound 8 µM): 0.632
- relative viability (NCI-H1437; first compound 0.08 µM): 1.12
- relative viability (NCI-H1437; first compound 0.253 µM): 1.49
- relative viability (NCI-H1437; first compound 0.8 µM): 1.15
- relative viability (NCI-H1437; first compound 2.53 µM): 0.997
- relative viability (NCI-H1437; first compound 8 µM): 1.12
- relative viability (COR-L23; first compound 0.08 µM): 0.958
- relative viability (COR-L23; first compound 0.253 µM): 0.965
- relative viability (COR-L23; first compound 0.8 µM): 1.13
- relative viability (COR-L23; first compound 2.53 µM): 1.08
- relative viability (COR-L23; first compound 8 µM): 1.04
- relative viability (NCI-H1355; first compound 0.08 µM): 0.853
- relative viability (NCI-H1355; first compound 0.253 µM): 0.937
- relative viability (NCI-H1355; first compound 0.8 µM): 0.818
- relative viability (NCI-H1355; first compound 2.53 µM): 0.712
- relative viability (NCI-H1355; first compound 8 µM): 0.689
- relative viability (NCI-H1563; first compound 0.08 µM): 1.19
- relative viability (NCI-H1563; first compound 0.253 µM): 1.42
- relative viability (NCI-H1563; first compound 0.8 µM): 1.2
- relative viability (NCI-H1563; first compound 2.53 µM): 1.2
- relative viability (NCI-H1563; first compound 8 µM): 1.06
- relative viability (NCI-H1651; first compound 0.08 µM): 1.06
- relative viability (NCI-H1651; first compound 0.253 µM): 1.2
- relative viability (NCI-H1651; first compound 0.8 µM): 0.954
- relative viability (NCI-H1651; first compound 2.53 µM): 0.879
- relative viability (NCI-H1651; first compound 8 µM): 0.865
- relative viability (LOU-NH91; first compound 0.08 µM): 0.946
- relative viability (LOU-NH91; first compound 0.253 µM): 0.923
- relative viability (LOU-NH91; first compound 0.8 µM): 0.845
- relative viability (LOU-NH91; first compound 2.53 µM): 0.769
- relative viability (LOU-NH91; first compound 8 µM): 0.893
- relative viability (NCI-H838; first compound 0.08 µM): 0.958
- relative viability (NCI-H838; first compound 0.253 µM): 1.49
- relative viability (NCI-H838; first compound 0.8 µM): 0.821
- relative viability (NCI-H838; first compound 2.53 µM): 0.859
- relative viability (NCI-H838; first compound 8 µM): 0.899
- relative viability (NCI-H2023; first compound 0.08 µM): 0.611
- relative viability (NCI-H2023; first compound 0.253 µM): 0.747
- relative viability (NCI-H2023; first compound 0.8 µM): 0.723
- relative viability (NCI-H2023; first compound 2.53 µM): 0.458
- relative viability (NCI-H2023; first compound 8 µM): 0.416
- relative viability (NCI-H1975; first compound 0.08 µM): 1.07
- relative viability (NCI-H1975; first compound 0.253 µM): 1.2
- relative viability (NCI-H1975; first compound 0.8 µM): 0.807
- relative viability (NCI-H1975; first compound 2.53 µM): 0.863
- relative viability (NCI-H1975; first compound 8 µM): 0.881
- relative viability (BEN; first compound 0.08 µM): 0.996
- relative viability (BEN; first compound 0.253 µM): 1.04
- relative viability (BEN; first compound 0.8 µM): 1.14
- relative viability (BEN; first compound 2.53 µM): 0.898
- relative viability (BEN; first compound 8 µM): 1.23
- relative viability (NCI-H358; first compound 0.08 µM): 0.618
- relative viability (NCI-H358; first compound 0.253 µM): 0.665
- relative viability (NCI-H358; first compound 0.8 µM): 0.79
- relative viability (NCI-H358; first compound 2.53 µM): 0.707
- relative viability (NCI-H358; first compound 8 µM): 0.784

Source: the supplement of paper PMC10307832
